# Measured values reported in the supplement of paper PMC10307832.
# What was measured:
# Assay in all cases: relative viability (nuclei count vs DMSO), 5 days (fraction); higher = more cells survive
# BEN = system: BEN
# In short: (§1)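 One day after seeding in 1536-well plates, lung cancer cell lines were dosed by pin tool. Dosing was either single-drug or a fixed anchor-drug dose plus five library-drug doses (not always all listed) in √10 steps. After 5 days, nuclei were stained in one fix-and-stain step and counted on 4× images, and relative viability is the nuclei count of treated wells over that of vehicle wells, given as the median of duplicate plates.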
# HCC-827 = system: HCC-827
# In short: as §1
# LK-2 = system: LK-2
# In short: as §1
# NCI-H1650 = system: NCI-H1650
# In short: as §1
# NCI-H1792 = system: NCI-H1792
# In short: as §1
# SW 1573 = system: SW 1573
# In short: as §1
# LOU-NH91 = system: LOU-NH91
# In short: as §1
# COR-L 105 = system: COR-L 105
# In short: as §1
# SK-MES-1 = system: SK-MES-1
# In short: as §1
# NCI-H2126 = system: NCI-H2126
# In short: as §1
# LU99A = system: LU99A
# In short: as §1
# HCC-78 = system: HCC-78
# In short: as §1
# LCLC-97TM1 = system: LCLC-97TM1
# In short: as §1
# EMC-BAC-2 = system: EMC-BAC-2
# In short: as §1
# NCI-H727 = system: NCI-H727
# In short: as §1
# NCI-H1734 = system: NCI-H1734
# In short: as §1
# EKVX = system: EKVX
# In short: as §1
# ChaGo-K-1 = system: ChaGo-K-1
# In short: as §1
# NCI-H2087 = system: NCI-H2087
# In short: as §1
# EPLC-272H = system: EPLC-272H
# In short: as §1
# RERF-LC-KJ = system: RERF-LC-KJ
# In short: as §1
# NCI-H358 = system: NCI-H358
# In short: as §1
# NCI-H1944 = system: NCI-H1944
# In short: as §1
smiles,measurement,setting,value
O=C(O)CCCCC(CCSCc1ccccc1)SCc1ccccc1 (centres undefined) [CPI-613] + CC(=O)c1c(C)c2cnc(Nc3ccc(N4CCNCC4)cn3)nc2n(C2CCCC2)c1=O [Palbociclib] (partner 0.5 µM),relative viability,BEN; first compound 5 µM,0.457
same,relative viability,BEN; first compound 15.81 µM,0.506
same,relative viability,BEN; first compound 50 µM,0.487
same,relative viability,BEN; first compound 158.11 µM,0.483
same,relative viability,BEN; first compound 500 µM,0.42
same,relative viability,HCC-827; first compound 5 µM,0.465
same,relative viability,HCC-827; first compound 15.81 µM,0.491
same,relative viability,HCC-827; first compound 50 µM,0.464
same,relative viability,HCC-827; first compound 158.11 µM,0.496
same,relative viability,HCC-827; first compound 500 µM,0.417
same,relative viability,LK-2; first compound 5 µM,0.766
same,relative viability,LK-2; first compound 15.81 µM,0.684
same,relative viability,LK-2; first compound 50 µM,0.726
same,relative viability,LK-2; first compound 158.11 µM,0.532
same,relative viability,LK-2; first compound 500 µM,0.547
same,relative viability,NCI-H1650; first compound 5 µM,0.326
same,relative viability,NCI-H1650; first compound 15.81 µM,0.276
same,relative viability,NCI-H1650; first compound 50 µM,0.317
same,relative viability,NCI-H1650; first compound 158.11 µM,0.0807
same,relative viability,NCI-H1650; first compound 500 µM,0.0173
same,relative viability,NCI-H1792; first compound 5 µM,0.627
same,relative viability,NCI-H1792; first compound 15.81 µM,0.607
same,relative viability,NCI-H1792; first compound 50 µM,0.654
same,relative viability,NCI-H1792; first compound 158.11 µM,0.632
same,relative viability,NCI-H1792; first compound 500 µM,0.666
same,relative viability,SW 1573; first compound 5 µM,0.336
same,relative viability,SW 1573; first compound 15.81 µM,0.579
same,relative viability,SW 1573; first compound 50 µM,0.384
same,relative viability,SW 1573; first compound 158.11 µM,0.0841
same,relative viability,SW 1573; first compound 500 µM,0.056
same,relative viability,LOU-NH91; first compound 5 µM,0.506
same,relative viability,LOU-NH91; first compound 15.81 µM,0.548
same,relative viability,LOU-NH91; first compound 50 µM,0.522
same,relative viability,LOU-NH91; first compound 158.11 µM,0.402
same,relative viability,LOU-NH91; first compound 500 µM,0.435
same,relative viability,COR-L 105; first compound 5 µM,0.423
same,relative viability,COR-L 105; first compound 15.81 µM,0.441
same,relative viability,COR-L 105; first compound 50 µM,0.379
same,relative viability,COR-L 105; first compound 158.11 µM,0.294
same,relative viability,COR-L 105; first compound 500 µM,0.26
same,relative viability,SK-MES-1; first compound 5 µM,0.305
same,relative viability,SK-MES-1; first compound 15.81 µM,0.279
same,relative viability,SK-MES-1; first compound 50 µM,0.277
same,relative viability,SK-MES-1; first compound 158.11 µM,0.14
same,relative viability,SK-MES-1; first compound 500 µM,0.145
same,relative viability,NCI-H2126; first compound 5 µM,0.334
same,relative viability,NCI-H2126; first compound 15.81 µM,0.363
same,relative viability,NCI-H2126; first compound 50 µM,0.338
same,relative viability,NCI-H2126; first compound 158.11 µM,0.213
same,relative viability,NCI-H2126; first compound 500 µM,0.162
same,relative viability,LU99A; first compound 5 µM,0.383
same,relative viability,LU99A; first compound 15.81 µM,0.411
same,relative viability,LU99A; first compound 50 µM,0.372
same,relative viability,LU99A; first compound 158.11 µM,0.193
same,relative viability,LU99A; first compound 500 µM,0.264
same,relative viability,HCC-78; first compound 5 µM,0.462
same,relative viability,HCC-78; first compound 15.81 µM,0.527
same,relative viability,HCC-78; first compound 50 µM,0.473
same,relative viability,HCC-78; first compound 158.11 µM,0.447
same,relative viability,HCC-78; first compound 500 µM,0.427
same,relative viability,LCLC-97TM1; first compound 5 µM,0.232
same,relative viability,LCLC-97TM1; first compound 15.81 µM,0.207
same,relative viability,LCLC-97TM1; first compound 50 µM,0.177
same,relative viability,LCLC-97TM1; first compound 158.11 µM,0.124
same,relative viability,LCLC-97TM1; first compound 500 µM,0.0897
same,relative viability,EMC-BAC-2; first compound 5 µM,0.524
same,relative viability,EMC-BAC-2; first compound 15.81 µM,0.506
same,relative viability,EMC-BAC-2; first compound 50 µM,0.514
same,relative viability,EMC-BAC-2; first compound 158.11 µM,0.267
same,relative viability,EMC-BAC-2; first compound 500 µM,0.265
same,relative viability,NCI-H727; first compound 5 µM,0.673
same,relative viability,NCI-H727; first compound 15.81 µM,0.614
same,relative viability,NCI-H727; first compound 50 µM,0.566
same,relative viability,NCI-H727; first compound 158.11 µM,0.655
same,relative viability,NCI-H727; first compound 500 µM,0.634
same,relative viability,NCI-H1734; first compound 5 µM,0.314
same,relative viability,NCI-H1734; first compound 15.81 µM,0.274
same,relative viability,NCI-H1734; first compound 50 µM,0.335
same,relative viability,NCI-H1734; first compound 158.11 µM,0.199
same,relative viability,NCI-H1734; first compound 500 µM,0.144
same,relative viability,EKVX; first compound 5 µM,0.372
same,relative viability,EKVX; first compound 15.81 µM,0.449
same,relative viability,EKVX; first compound 50 µM,0.404
same,relative viability,EKVX; first compound 500 µM,0.378
same,relative viability,ChaGo-K-1; first compound 5 µM,0.868
same,relative viability,ChaGo-K-1; first compound 15.81 µM,0.902
same,relative viability,ChaGo-K-1; first compound 50 µM,0.842
same,relative viability,ChaGo-K-1; first compound 158.11 µM,0.339
same,relative viability,ChaGo-K-1; first compound 500 µM,0.419
same,relative viability,NCI-H2087; first compound 5 µM,0.253
same,relative viability,NCI-H2087; first compound 15.81 µM,0.197
same,relative viability,NCI-H2087; first compound 50 µM,0.19
same,relative viability,NCI-H2087; first compound 158.11 µM,0.0923
same,relative viability,NCI-H2087; first compound 500 µM,0.0098
same,relative viability,EPLC-272H; first compound 5 µM,0.348
same,relative viability,EPLC-272H; first compound 15.81 µM,0.315
same,relative viability,EPLC-272H; first compound 50 µM,0.306
same,relative viability,EPLC-272H; first compound 158.11 µM,0.316
same,relative viability,EPLC-272H; first compound 500 µM,0.259
same,relative viability,RERF-LC-KJ; first compound 5 µM,1.07
same,relative viability,RERF-LC-KJ; first compound 15.81 µM,0.952
same,relative viability,RERF-LC-KJ; first compound 50 µM,1.09
same,relative viability,RERF-LC-KJ; first compound 158.11 µM,0.615
same,relative viability,RERF-LC-KJ; first compound 500 µM,0.571
same,relative viability,NCI-H358; first compound 5 µM,0.114
same,relative viability,NCI-H358; first compound 15.81 µM,0.134
same,relative viability,NCI-H358; first compound 50 µM,0.154
same,relative viability,NCI-H358; first compound 158.11 µM,0.0757
same,relative viability,NCI-H358; first compound 500 µM,0.0449
same,relative viability,NCI-H1944; first compound 5 µM,0.331
same,relative viability,NCI-H1944; first compound 15.81 µM,0.312
same,relative viability,NCI-H1944; first compound 50 µM,0.335
same,relative viability,NCI-H1944; first compound 158.11 µM,0.259
same,relative viability,NCI-H1944; first compound 500 µM,0.26
